From patent US20230382934A1, “HIGH ENTROPY OXIDES AND METHODS OF SYNTHESIS AND USE THEREOF” (Auburn University, priority 2022, published 2023)
Each block holds one compound with its values, some of them ahead of it.

Columns and labels:
[1] = Stability of Fe(II) complexes by potentiometric pH titration (log KML); type: physicochemical; details: 25° C.
Description: (§1) The aqueous speciation of H4qp4 was previously determined. Those for its Fe(II) and Fe(III) complexes were assessed using a METROHM 765 Dosimat with a jacketed, airtight glass titration vessel. A Fisher Scientific Accumet Research AR15 pH meter was used to monitor the pH of the sample solutions during the titrations. The electrode was calibrated before each titration using commercially available standard solutions buffered to pH 4.0, 7.0, and 10.0. All samples were purged with argon prior to analysis and subsequently analyzed under an argon atmosphere at 25° C. to prevent carbonate contamination. All solution samples were prepared in solutions of 100 mM KCl in deionized Millipore water. The titrations investigating metal-ligand speciation were run with solutions that contained a 1:1 molar mixture of the ligand and FeCl2·(4H2O). Carbonate-free solutions of 0.10 M KOH and 0.10 M HCl were prepared using argon-saturated deionized Millipore water. The titration data were analyzed and fit to speciation models using the Hyperquad2006 program.

[2] = cited from earlier work; for increase of relaxivity upon oxidation by excess H2O2: recently reported sensors
[3] = cited from earlier work; for log KML of the Mn(II) complex: other reported Mn(II)-binding ligands; for pMn: pH 7.4, 1.0 mM Mn(II) and ligand, previously characterized complexes
[4] = T1-weighted relaxivity, 3 T clinical MRI scanner
Description: All MRI data were collected at the Auburn University MRI Research Center on a Siemens Verio open-bore 3-T MRI clinical scanner. A 15-channel knee coil was used to simultaneously image 12-15 samples. The imaging procedure was identical to those used for similar studies (Zhang, Q. et al., 2011, Inorg. Chem. 50, 9365; Yu, M. et al., 2014, J. Am. Chem. Soc., 136:12836; Yu, M. et al., 2017, Inorg. Chem., 56:2812; Yu, M. et al., 2012, Inorg. Chem. 51:9153). An inversion recovery (IR) sequence was used that featured a non-selective adiabatic inversion pulse followed by a slice-selective gradient recalled echo (GRE) readout after a delay period corresponding to the inversion time (TI) (Bernstein, M. A. et al., 2004, Handbook of MRI Pulse Sequences; Haacke, E. M. et al., 1999, Magnetic Resonance Imaging: Physical Principles and Sequence Design). The GRE was a saturation readout, such that only one line of k-space was acquired per repetition time (TR), in order to maximize both signal strength and the accuracy of the T1 estimates. […]
Image analysis was performed using custom Matlab programs (Mathworks, Natick, MA). The initial TI=4.8 ms image was used as a baseline to determine circular region of interest (ROI) boundaries for each sample; from these, the mean pixel magnitudes for each ROI were calculated. […]

[5] = Stability of Fe(III) complexes by potentiometric pH titration (log KML); type: physicochemical; details: 25° C.
Description: as §1

[6] = Variable temperature 17O NMR, aquation number and water exchange of Mn(II) complexes; type: physicochemical; details: Example 1, Mn(II) complexes, 298 K
Description: FIG. 16 depicts plots of r2° as a function of temperature for 1 before and after oxidation by H2O2. Experimental conditions for pre-activated sensor (black squares): [1]=6.0 mM in 60 mM HEPES buffered to pH 7.4 and 10% (v/v) of 10% ^17OH2, B=9.4 T. Experimental conditions for activated sensor (red circles): [1]=2.5 mM in 60 mM MOPS buffered to pH 7.4 with 15 equiv. H2O2 and 10% (v/v) of 10% ^17OH2, B=9.4 T. NMR data acquisition began 15 min after the start of the oxidation reaction.
Aquation numbers (q) were calculated from the maximum ^17O transverse relaxivity, r2max°, and the equation: q=r2max°/510; Gale, Zhu, and Caravan previously used this relationship to estimate the inner-sphere hydration state of Mn(II) in coordination complexes (Gale, E. M. et al., 2013, J. Am. Chem. Soc., 135:18600). Relaxation rates were measured both for aqueous solutions containing Mn(II) complexes and for metal-free solutions buffered to pH 7.4. The linewidths at half-height of the signal were determined by a deconvolution procedure on the real part of the Fourier transformed spectra with a Lorentzian shape function in the data analysis module of Bruker Topspin 1.3® software. The measurements were performed with a commercial 5 mm Bruker broadband probe thermostat with a Bruker B-VT 3000 variable temperature unit. […]

[7] = Metal ion exchange with Fe(II) followed by UV/vis; type: physicochemical
Description: FIG. 18, comprising FIG. 18A and FIG. 18B, depicts representative spectrophotometric spectra. FIG. 18A depicts spectrophotometric analysis of the reaction between 0.1 mM Fe(ClO4)2 and 0.1 mM 1 in MeCN at 298 K. The UV/vis spectra of the product formed from 0.1 mM Fe(ClO4)2 and 0.1 mM H4qp4 (blue) and that corresponding to 0.1 mM 1 are provided for comparison. FIG. 18B depicts spectrophotometric analysis of the reaction between 0.1 mM Fe(OTf)2 and 0.1 mM 1 in aqueous solutions containing 50 mM HEPES buffered to pH 7.00 at 298 K. The UV/vis spectrum of the product formed from 0.1 mM Fe(OTf)2 and 0.1 mM H4qp4 (blue) and that corresponding to 0.1 mM 1 are provided for comparison.

[8] = Metal ion exchange with Zn(II) followed by 1H NMR; type: physicochemical; details: Example 2, 10 mM Fe(III) complex 3 and 20 mM Zn(ClO4)2, 48 h
Description: FIG. 19, comprising FIG. 19A and FIG. 19B, depicts representative NMR data. FIG. 19A depicts a reaction between 20 mM Zn(ClO4)2 and 10 mM 1 in CD3CN. The reaction equilibrated at 295 K for 24 h prior to data acquisition. FIG. 19B depicts the ^1H NMR spectrum of the product of the reaction between 10 mM Zn(ClO4)2 and 10 mM metal-free H4qp4.
FIG. 63, comprising FIG. 63A and FIG. 63B, depicts representative NMR data. FIG. 63A depicts the reaction between 20 mM Zn(ClO4)2 and 10 mM 3 in D20. The reaction equilibrated at 295 K for 48 h prior to data acquisition. FIG. 63B depicts a ^1H NMR spectrum of the product of the reaction between 10 mM Zn(ClO4)2 and 10 mM metal-free H4qp4 in D20.

[9] = Example 1, previously reported Mn(II) complex 3; cited from earlier work

- log KML [1]: 27.16
Compound: (1-(2,5-dihydroxybenzyl)-8-(2,5-dihydroxybenzylalkoxide)-1,4,8,11-tetraazacyclotetradecane)iron(II) triflate [Complex 1]

Compound: O=C([O-])CN(CC(=O)[O-])C1CCCCC1N(CC(=O)[O-])Cc1ccccn1.[Fe+2] (stereo not drawn) [Fe(II)-PyC3A]
- increase in relaxivity on oxidation to Fe(III) ([2]; 1.4 T): 10 fold

Compound: O=C(O)CN(CC(=O)O)C1CCCCC1N(CC(=O)O)Cc1ccccn1 (stereo not drawn) [PyC3A^3−]
- log KML of the Mn(II) complex [3]: 14.14

Compound: NCCN1CCN(CC(=O)O)Cc2cccc(n2)CN(CC(=O)O)CC1 [PC2A-EA^2−]
- log KML of the Mn(II) complex [3]: 19.01

Compound: Oc1ccc(O)c(CN(CCN(Cc2ccccn2)Cc2cc(O)ccc2O)Cc2ccccn2)c1.[Br-].[Br-].[Mn+2] [Complex 3]
- increase of relaxivity upon oxidation by excess H2O2 [2]: 30%

Compound: O.O.O.O.O.O.[Mn+2] [[Mn(H2O)6]^2+]
- T1-weighted relaxivity ([4]; Example 1, measured independently): 5.26 mM^−1 s^−

Compound: O=C(O)CN1CCN(CC(=O)O)CCN(CC(=O)O)CCN(CC(=O)O)CC1 [DOTA^4−]
- log KML of the Mn(II) complex [3]: 19.89

- log KML [5]: 33.80
- Mn(II) displaced by an equimolar amount of Fe(II) ([7]; Example 1, by 3 h): 80%
- Zn(II) complex with H4qp4 formed [8]: only trace amounts
Compound: O=S(=O)([O-])C(F)(F)F.O=S(=O)([O-])C(F)(F)F.[Fe+3].[O-]c1ccc(O)cc1CN1CCCNCCN(Cc2cc(O)ccc2O)CCCNCC1 [Complex 3, (1-(2,5-dihydroxybenzyl)-8-(2,5-dihydroxybenzylalkoxide)-1,4,8,11-tetraazacyclotetradecane)iron(III) triflate]
- rate constant for water exchange (kex) [6]: 4.9e+06 s⁻¹
- r1 ([4]; Example 2, Fe(III) complex 3, 3 T, 50 mM HEPES pH 7.00, 298 K): 0.87 mM⁻¹ s⁻¹
- pMn [3]: 5.36
- r1 of pre-activated form [9]: 5.46 mM^−1 s^−

- log KML [5]: 38.84
- Mn(II) displaced by an equimolar amount of Fe(II) ([7]; Example 1, MeCN, by 15 h): approximately 10%
Compound: CC#N.O=S(=O)([O-])C(F)(F)F.O=S(=O)([O-])C(F)(F)F.Oc1ccc(O)c(CN(CCN(Cc2ccccn2)Cc2ccccn2)Cc2ccccn2)c1.[Mn+2] [Complex 2]
- pMn [3]: 7.25
- increase of relaxivity upon oxidation by excess H2O2 [2]: 10%
